In BindingDB's records for doi:10.1016/s0960-894x(00)00051-2 (Astrazeneca, 2000) one finds IC50 data, which are given here for 18 compounds.

pIC50: −log10 of the molar value.

The first assay concerns the target T1, Tyrosine-protein kinase JAK3 (Homo sapiens, UniProt P52333).
T1 sequence (P52333 whole entry): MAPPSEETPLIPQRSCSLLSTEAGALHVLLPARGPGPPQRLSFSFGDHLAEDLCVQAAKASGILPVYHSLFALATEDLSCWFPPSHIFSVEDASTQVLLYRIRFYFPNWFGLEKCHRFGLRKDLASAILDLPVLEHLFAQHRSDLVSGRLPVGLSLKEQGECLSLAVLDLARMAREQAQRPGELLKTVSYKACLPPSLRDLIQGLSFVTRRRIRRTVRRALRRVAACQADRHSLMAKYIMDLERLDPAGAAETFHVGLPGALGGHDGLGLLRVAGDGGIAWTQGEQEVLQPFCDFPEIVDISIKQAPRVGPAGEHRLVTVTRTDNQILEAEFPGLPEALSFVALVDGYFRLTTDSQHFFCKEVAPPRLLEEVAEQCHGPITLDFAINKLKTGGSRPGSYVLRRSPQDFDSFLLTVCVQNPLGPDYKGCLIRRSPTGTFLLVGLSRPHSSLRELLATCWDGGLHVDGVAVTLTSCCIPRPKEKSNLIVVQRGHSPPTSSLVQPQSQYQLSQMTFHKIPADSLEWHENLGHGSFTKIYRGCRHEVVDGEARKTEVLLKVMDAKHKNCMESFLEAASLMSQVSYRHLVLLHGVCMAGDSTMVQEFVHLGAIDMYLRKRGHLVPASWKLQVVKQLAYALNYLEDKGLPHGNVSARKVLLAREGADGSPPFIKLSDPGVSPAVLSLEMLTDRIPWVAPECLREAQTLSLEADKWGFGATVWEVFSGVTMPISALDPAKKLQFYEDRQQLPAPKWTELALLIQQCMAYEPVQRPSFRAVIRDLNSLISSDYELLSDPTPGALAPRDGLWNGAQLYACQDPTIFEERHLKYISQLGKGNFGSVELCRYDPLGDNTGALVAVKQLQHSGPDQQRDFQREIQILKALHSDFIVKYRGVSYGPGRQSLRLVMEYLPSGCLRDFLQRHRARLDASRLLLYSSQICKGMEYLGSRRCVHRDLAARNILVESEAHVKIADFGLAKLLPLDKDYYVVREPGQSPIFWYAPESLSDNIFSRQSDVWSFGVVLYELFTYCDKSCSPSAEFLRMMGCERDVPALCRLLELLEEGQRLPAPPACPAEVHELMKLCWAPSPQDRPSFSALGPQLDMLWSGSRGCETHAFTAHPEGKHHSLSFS
In words: (§1) In vitro inhibition of Janus kinase 3.
Consider `ON=C(CCN1CCOCC1)c1ccc2ccccc2c1`, for which the pIC50 is below 3.00.
Still for that read-out and setting: for `O=C(CCNCc1ccccc1)c1ccc2ccccc2c1` the value was below 3.00.
Turning to `O=C(CCCN1CCOCC1)c1ccc2ccccc2c1`, the pIC50 was below 3.00.
Same read-out and setting: for `CC(C)(CN1CCOCC1)C(=O)c1ccc2ccccc2c1` the value was below 3.00; for `O=c1c(CN2CCOCC2)coc2cc3ccccc3cc12`, below 3.00.

Another assay concerns the target T1, Tyrosine-protein kinase JAK3. In words: ChEBML_91954.
Text: as §1
As to `O=C(CCN1CCOCC1)c1cccc2ccccc12`, the pIC50 was 5.50.
With `CN(C)CCC(=O)c1ccc2ccccc2c1`, the pIC50 was 6.20.
In turn, `COc1cc2ccc(C(=O)CCN3CCOCC3)cc2cc1OC` had a pIC50 of 3.70.
Same read-out and setting: for `CC(=Cc1ccccc1)C(=O)CCN1CCOCC1` the value was 4.90; for `CC(C)N(CCC(=O)c1ccc2ccccc2c1)Cc1ccccc1`, 7.10.
`O=C(CCN1CCOCC1)c1ccc2ccc3ccccc3c2c1`: the pIC50 was 6.30.
Same read-out and setting: for `C=CC(=O)c1ccc2ccccc2c1` [Thr1 inhibitor, 1] the value was 7.10.
Consider `O=C(C=Cc1ccccc1Cl)CCN1CCOCC1`, for which the pIC50 is 4.90.
On the same count and under the same terms, for `O=C(CCN1CCCCCC1)c1ccc2ccccc2c1` the value was 6.10; for `COc1ccc2cc(C(=O)CCN3CCOCC3)ccc2c1`, 4.80.
Still for that read-out and setting: for `O=C(CCN1CCOCC1)c1ccc2ccccc2c1` the value was 5.70.
`C=CC(O)c1ccc2ccccc2c1` (stereo not drawn): the negative logarithm of the IC50 (pIC50) was 3.30.
On the same count and under the same terms, for `N#C/C(=C\c1ccc(O)c(O)c1)C(=O)NCc1ccccc1` the value was 4.90.

The pIC50 is the negative decadic logarithm of the IC50, by convention in mol/L. A lower pIC50 goes with a high IC50.
